Results as given in US9375413B2, “Methods of reducing milk somatic cell count” ([…], priority 2014, dated 2016).

What was measured:
[1] = tested on: Twin-bearing, multiparous Romney ewes; test: Milk free amino acid profiles by HPLC (Example 1); assay type: in vivo, sheep; settings: saline-treated controls compared to L-arginine treated ewes
Text: (§1) Twin-bearing, multiparous Romney ewes were housed in individual stalls and fed once daily, a lucerne-based pellet diet formulated to meet 100% of the NRC-recommended maintenance requirements for twin-bearing pregnant and lactating ewes throughout the trial.
(§2) From day 100 of pregnancy to parturition, ewes received either an injected bolus of L-arginine-mono-hydrochloride (L-arginine-HCL; Merck KGaA, Darmstadt, Germany; 345 μmol/kg body weight (BW)) or a control being approximately the same volume of sterile saline injected three times daily (0800, 1600, 2400 hrs).
Milk free amino acids (FAA) were analysed using High-Performance Liquid Chromatography (HPLC). Skim milk (500 μL) was mixed with 500-4, lithium extraction buffer (14 g/L lithium chloride, 3 g/L lithium hydroxide, 1 g/L phenol, 50 g/L sulfosalic acid) and placed on ice for 15 to 20 min. Volumes of 10-μL lithium hydroxide (5.88 M) were added to the sample to obtain a final pH of 1.5 to 2. This was followed by centrifugation at 13,680×g for 5 min at 4° C., and the resulting supernatant was filtered through a 4 mm 0.2 μm syringe filter. The filtered sample was analysed for FAA using a Shimadzu LC 10Ai HPLC, fitted with a high-efficiency lithium-ion exchange column (3 mm i.d.×150 mm) Injected volumes were 10 μL, the reagent flow rate was 0.3 mL/min, and the run was 162 min between injections, using lithium buffers as elutants and ninhydrin post column derivatization. Free amino acid values are reported as μmol per liter of milk. Differences between treatment groups were analysed using the MIXED procedure (SAS) with a linear model that included the fixed effects of dam, dam treatment group, and the covariates average dam live weight, average dam body condition score and days in lactation were included in the model.

[2] = tested on: non-gestational (and pre-ruminant) calves; settings: cited from earlier work
sheep = settings: not in gestation, one off dose; cited from earlier work
[3] = Effect of i.v. bolus on plasma arginine concentration; assay type: in vivo, sheep
Experimental: FIG. 4 is a graph from the above study illustrating plasma arginine concentrations immediately prior to (−5 min) and 30, 60 and 180 minutes following an i.v. bolus of arginine or saline (controls) in twin-bearing ewes (n=9/group) at 120 days gestation.
FIG. 5 is a graph from the above study illustrating plasma arginine concentrations 1 hour following a bolus of arginine or saline (controls) and immediately prior to slaughter at day 140 gestation in twin-bearing ewes (n=6/group).
To determine the magnitude of the increase in circulating Arg concentrations following a single bolus (3 boluses were given each day), plasma samples collected from all ewes at day 120 of gestation at time −5 (immediately prior to bolus), 30, 60 and 180 minutes following the bolus (Arg or saline) were analysed for Arg concentration using reverse-phase high-performance liquid chromatography (Sales et al., 2012). Nine ewes per treatment group were randomly selected for analysis.

twin-bearing ewes = test: Somatic cell count (SCC) in milk after arginine supplementation in mid-late gestation (Example 2); assay type: in vivo, sheep; settings: for somatic cell count (SCC) lower than controls: trend P<0.15
Text: FIG. 3 is a graph from a further study confirming the effect of arginine supplementation from 100 days gestation to birth in twin-bearing ewes on somatic cell count (SCC) in milk. Data was log transformed for analysis—back transformed values are presented.
In a second experiment ewes were supplemented with arginine during mid-late gestation that stopped at parturition.

[4] = tested on: Twin-bearing, multiparous Romney ewes; test: Milk composition (crude protein, somatic cell count, fat, lactose) and milk yield after L-arginine supplementation from day 100 of pregnancy to parturition (Example 1); assay type: in vivo, sheep
Text: as §1, §2
At the first sign of labour induction, which was between 1 and 10 hours (h) prior to birth, L-arginine treatment ceased and ewes were allowed to lamb naturally. In total 25 ewes were used (arginine group, n=13; control group n=12).
Ewes were assigned to milking groups based on parturition date. Collection of a colostrum sample within the 12 h post partum could have compromised animal behaviour and ewe-lamb bond formation. Therefore, a range of 0.58-1.22 days in lactation was produced when the “colostrum” sample was collected. Ewes were then milked approximately at day 1, 4, 7, 10 and 14 of lactation, using the oxytocin method. At each milking, ewes were milked by machine followed by hand stripping, after an intravenous injection of 1 IU of synthetic oxytocin (Oxytocin V, 10 IU/mL). The time when the udder was empty was recorded. Animals were milked again (machine and hand-stripping) approximately 4 h later, with the time and weight of the milk recorded. Lambs were separated from the ewes and bottle-fed as required during the intervening period, using the milk collected from their respective dam. The same operators milked all ewes on each occasion in this study using a mobile milking machine. Milk obtained after the 4 h intervening period was subsampled for analysis of milk composition (% fat, % crude protein (CP), % lactose and somatic cell count). Milk samples were preserved with bronopol and refrigerated at 4° C. until analysis using a FT120-FTIR, calibrated for sheep milk. Two reference checks (fat and CP) were taken during lactation to account for changes in the matrix of the milk due to stage of lactation. Somatic cell counts were determined using a bromide based fluorescent dye and a FOSS flow Cytometer and values log transformed. Ewes were weighed and body condition scored (scale of 1 to 5) once a week.
Throughout milking, dams and offspring were housed in individual pens immediately adjacent to each other. Daily milk yield was calculated. Repeated measures analysis of milk yield and composition using the MIXED procedure with a linear model that included the fixed effects of dam, dam treatment group, and the covariates average dam live weight, average dam body condition score and days in lactation were included in the model. From the 25 ewes available only 18 were used for statistical analysis (arginine group n=8; control group n=10).

SMILES: Cl.N=C(N)NCCC[C@H](N)C(=O)O [L-arginine, L-arginine-mono-hydrochloride]
- absolute milk free concentration of histidine ([1]; day 7 post parturition): significantly decreased in saline-treated controls
- absolute milk free concentration of phenyalanine ([1]; day 7 post parturition): significantly decreased in saline-treated controls
- absolute milk free concentration of tryptophan ([1]; day 7 post parturition): significantly decreased in saline-treated controls
- absolute milk free concentration of tyrosine ([1]; day 7 post parturition): significantly decreased in saline-treated controls
- milk free asparagine ([1]; day 14 post parturition): significantly decreased
- milk free glutamate ([1]; day 14 post parturition): trends for decreased
- milk free leucine ([1]; day 14 post parturition): trends for decreased
- milk free tyrosine ([1]; day 14 post parturition): trends for decreased
- antibody production in plasma [2]: reduction in antibody production
- plasma white blood cell levels (sheep): increase in white blood cell levels
- increase in circulating Arg concentrations ([3]; 30 minutes following single i.v. bolus, day 120 of gestation): 4 fold
- plasma Arg relative to controls ([3]; 1 hour following a bolus, immediately prior to slaughter at 140 days of gestation, P<0.0001): 4.6 times higher than controls
- time for circulating concentrations of Arg to return to baseline ([3]; after i.v. bolus, day 120 of gestation): ≤ 3 h
- elevated circulating Arg concentrations relative to control ([3]; until at least 60 minutes post-dosage, single i.v. bolus, day 120 of gestation): 3 times the control
- variation in SCC between animals (twin-bearing ewes; control compared to arginine-supplemented ewes, at each time-point and over time): greater in the control
- somatic cell count (SCC) lower than controls (twin-bearing ewes; day 1 (colostrum) of lactation): 77%
- somatic cell count (SCC) lower relative to controls (twin-bearing ewes; day 7 of lactation): ~75%
- somatic cell count (SCC) lower than controls (twin-bearing ewes; day 10 of lactation): 53%
- somatic cell count (SCC) lower relative to controls (twin-bearing ewes; day 14 of lactation): ~75%
- SCC in milk (twin-bearing ewes; throughout the period of study, control ewes 787,000-2,594,000 cells/ml): 366,000-589,000 cells/ml
- MSC count compared to control animals ([4]; between day 1 and day 4 post parturition and administration stopping): significantly lower
- Milk somatic cell counts ([4]; day 4-14 of lactation, compared to saline-treated controls): decreased
- MSC counts ([4]; ewes treated with L-arginine, untreated ewes higher than 500,000): below 300,000
- fat percentage ([4]; milk, day 1 of lactation, saline-treated controls compared to L-arginine treated ewes): trend for increased fat percentage at day 1 in saline-treated controls
- Crude protein percentage ([4]; milk, day 4-7 of lactation, compared to saline-treated controls, 345 μmol/kg BW three times daily): increased
- crude milk protein percentage ([4]; milk, day 14 of lactation, saline-treated controls compared to L-arginine-treated ewes): trend for increased crude milk protein percentage was observed in saline-treated controls
- lactose percentage ([4]; milk, post parturition, versus saline-treated controls): No effect
- duration of protective response in terms of milk somatic cell count ([4]; post administration (administration day 100 to parturition)): at least 14 days
- milk yield ([4]; post parturition, versus saline-treated controls): No effect
